Data on two compounds can be found in PMC11938014, “Development and Application of Small Molecule–Peptide Conjugates as Cathepsin K-Specific Covalent Irreversible Inhibitors in Human Osteoclast and Lung Cancer” (JACS Au, 2025).

One assay concerns the target T1, CTSB (Homo sapiens, UniProt P07858).
T1 construct: made in house
The assay is described as follows: Kinetic evaluation of recombinant cathepsin inhibition, fluorogenic substrate Z-FR-AMC. The class given is biochemical. Here is the method: (§1) Cathepsin (0.4 nM, CatK) or 5 nM (CatS, CatB, and CatL) were each mixed with inhibitors before adding the fluorogenic substrate. The proteases were then reacted with their substrates, Z-RR-AMC (CatL) or Z-FR-AMC (CatS, CatB, and CatK), for 30 min at 37 °C in the phosphate buffer (100 mM Na2HPO4/NaH2PO4, 50 mM NaCl, 5 mM DTT, 0.1% PEG-6000, at pH 6). Reactions were done in 96-well black flat-bottom microplates (Greiner, Germany); fluorescence (Ex/Em 370 and 460 nm) was measured by a Tecan INFINITE M1000 pro plate reader (Tecan, Switzerland) in the presence of inhibitors or vehicle. For irreversible inhibitors, reaction data were analyzed by using the one-phase association formula in GraphPad Prism 9 software: Y = Y0 + (plateau – Y0) × (1 – exp(−K × X)), where Y0 and Y denote the fluorescence signals at times 0 and t, respectively, K represents the observed reaction rate kobs, and X signifies the […]. The inactivation rates at each inhibitor concentration were determined by subtracting the inactivation observed in the control sample: kobs – kctrl. The maximum inactivation rate (kinact) was derived as the asymptote from the equation Y = kinact × X/(Ki^app + X), where X represents the inhibitor concentration, Y is the observed inactivation rate for each X, and Ki^app is the apparent inhibition constant. Ki values were derived from IC50 or Ki^app using the equations Ki = Ki^app/(1 + […]) and IC50 = E0/2 + Ki^app, where Km represents the Michaelis–Menten constant, S denotes substrate concentration, and E0 indicates cathepsin concentration. The maximum inhibitor dose in the experiment was 50 μM. Measurements were conducted in multiple independent duplicates. Average values are listed.

Assay [1] deals with T2, endogenous cathepsin K in human osteoclasts (Homo sapiens, UniProt P43235).
T2 construct: endogenous in cells; host or cells: primary human osteoclasts differentiated from blood monocytes with M-CSF and RANKL
T2 sequence (P43235 115-329): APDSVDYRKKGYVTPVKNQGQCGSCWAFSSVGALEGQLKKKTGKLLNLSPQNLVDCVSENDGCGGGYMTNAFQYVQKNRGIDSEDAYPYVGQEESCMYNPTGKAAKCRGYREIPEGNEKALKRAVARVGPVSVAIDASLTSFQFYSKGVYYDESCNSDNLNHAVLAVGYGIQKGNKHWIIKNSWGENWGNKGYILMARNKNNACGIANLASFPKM
Briefly: Fluorescence microscopy of CTSK inhibition in human osteoclasts. In kind it is cell-based. As to conditions: human OC, 3 μM, 2 h; for fluorescence signal of pan-cathepsin probe GB123: then GB123 2 h; for CTSK activity labeled by GD32 probe: then GD32 8 h. How it is done: We next corroborated CTSK-specific inhibition by fluorescence microscopy studies of OC. Human OC were grown on 8-well plates; the intact cells were treated with either of the CTSK inhibitors or with the vehicle and then with the CTSK-specific fluorescent ABP GD32.[19] The fluorescence microscopy pictures were acquired following cell fixation, which permitted imaging and evaluating CTSK activity and inhibition in cells. […] As the inhibitors are specific to CTSK, they could not block the fluorescence signals of GB123 associated with other cathepsins (B, L, S) (Figure 8b).
Figure 8 Detection of inhibition of endogenous cathepsin K in intact cells by fluorescence microscopy. Enriched human monocytes from peripheral blood mononuclear cells (PBMC) were isolated from healthy donors’ blood and were treated for 14 days with M-CSF and RANKL or M-CSF alone, as indicated. Osteoclast cells were treated with vehicle (DMSO) or indicated inhibitors [3 μM] in a culture medium for 2 h, followed by incubation with (a) GD32 (a specific CTSK ABP) for 8 h or (b) GB123 for 2 h. Similar to those described in panel (a), cultures of U2-OS cells (c) and U-87 MG cells (d) were grown in 8-well chambers. Cells were pretreated with either the DMSO or [3 μM] of indicated specific CTSK inhibitors for 2 h and then labeled by the addition of 1.25 μM GD32 to the culture medium for 24 h (U2-OS) or 2 h (U-87 MG). After fixation, cells were stained with 4′,6-diamidino-2-phenylindole (DAPI) (nucleus), and images were captured by confocal microscopy.
Cells were seeded in 8-well chambers and then treated with an inhibitor or vehicle for 2 h. Cells were then labeled with the indicated probes for the indicated times and then washed with PBS, fixed with cold methanol, and mounted with DAPI-Fluoromount-G (SouthernBiotech, 0100-20) before visualization by confocal microscopy. Zeiss Confocal LSM 980 Microscope with Zen software was used with Airyscan (Germany).

A further assay deals with T3, CTSL (Homo sapiens, UniProt P07711).
T3 construct: made in house
The assay is described as follows: Kinetic evaluation of recombinant cathepsin inhibition, fluorogenic substrate Z-RR-AMC. In kind it is biochemical. Here is the method:
as §1

T3 sequence (P07711 114-333): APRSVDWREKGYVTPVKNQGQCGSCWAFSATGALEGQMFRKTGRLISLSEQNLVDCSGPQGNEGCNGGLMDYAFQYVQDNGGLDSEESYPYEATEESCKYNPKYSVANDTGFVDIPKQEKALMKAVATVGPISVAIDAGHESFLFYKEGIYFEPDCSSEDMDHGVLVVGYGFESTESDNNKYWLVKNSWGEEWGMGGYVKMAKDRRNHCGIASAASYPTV

With `CC(C)C[C@H](N[C@@H](c1ccc(-c2ccc(S(C)(=O)=O)cc2)cc1)C(F)(F)F)C(=O)NCC(=O)COC(=O)[C@@H]1CCCN1C(=O)[C@H](CC(C)C)NC(=O)OCC1c2ccccc2-c2ccccc21` [GD20], the Ki at CTSB (maximum inhibitor dose 50 μM) was greater than 50 µM. For the same compound, in assay [1], the “fluorescence signal of pan-cathepsin probe GB123” value is reported as “only a partial reduction” and the “CTSK activity labeled by GD32 probe” value is on record as “completely abolished CTSK activity”. Also, the Ki on CTSL (maximum inhibitor dose 50 μM) was greater than 50 µM.
Broadly, the kinact is the rate constant of inactivation at saturating inhibitor. Consider `CC(C)C[C@H](N[C@@H](c1ccc(-c2ccc(S(C)(=O)=O)cc2)cc1)C(F)(F)F)C(=O)NCC(=O)COC(=O)[C@@H]1CCCN1C(=O)[C@H](CCC(N)=O)NC(=O)OCC1c2ccccc2-c2ccccc21` [GD38], for which, at CTSB, the “type of inhibition, CTSB” value is “irreversible”. Moreover, the Ki on CTSB (irreversible inhibitor) and at CTSL (irreversible inhibitor) was greater than 50 µM each time. The kinact on CTSB (read-out: kinact (at 50 μM), CTSB) stood at 0.0072 s⁻¹; at CTSL (read-out: kinact (at 50 μM), CTSL), 0.0045 s⁻¹. The “fluorescence signal of pan-cathepsin probe GB123” value in assay [1] is “only a partial reduction”. Also, the “CTSK activity labeled by GD32 probe” value in assay [1] is reported as “completely abolished CTSK activity”. Further, the “type of inhibition, CTSL” value at CTSL is listed as “irreversible”.
